Measurements published in ChEMBL document CHEMBL4130597 (ACS Med Chem Lett, 2017).

Experiments:
Protease = Protease (Human immunodeficiency virus 1, UniProt Q9YQ12); assay: Inhibition of HIV1 protease expressed in Escherichia coli using Val-Ser-Gln-Asn-(beta-naphtyl)Ala-Pro-Ile-Val as substrate preincubated for 30 mins followed by substrate addition measured after 1 hr by mass spectrometric method
[1] = test system: Human immunodeficiency virus 1; assay: Antiviral activity against HIV1 infected in GFP expressing human MT4 cells assessed as inhibition of viral replication after 24 hrs in presence of 50% normal human serum; type: functional, organism-based; conditions: Human immunodeficiency virus 1, MT4, 24 h
[2] = test system: Human immunodeficiency virus 1; assay: Potency index, ratio of MK-8718 EC50 to test compound EC50 for HIV1 infected in GFP expressing human MT4 cells assessed as inhibition of viral replication; type: functional
[3] = target: Protease (Human immunodeficiency virus 1) (UniProt Q9YQ12); assay: Potency index, ratio of MK-8718 IC50 to test compound IC50 for HIV1 protease
Protease (Human immunodeficiency virus 1), sequence (Q9YQ12 as listed by the source): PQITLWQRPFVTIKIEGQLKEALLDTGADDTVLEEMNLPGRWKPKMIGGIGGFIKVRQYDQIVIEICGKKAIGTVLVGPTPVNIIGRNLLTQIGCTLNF

Protease, sequence (Q9YQ12 whole entry): as the sequence (Q9YQ12 as listed by the source) above

SMILES | EC50 [1] | also measured
N[C@H](C(=O)Nc1cncc(F)c1CC[C@@H]1CN[C@H](COC(=O)NCC(F)(F)F)CO1)[C@@H](c1ccc(Cl)cc1)c1cc(F)cc(F)c1 | 27 nM | IC50 (Protease): 0.7 nM
C[C@H]1CN(S(=O)(=O)c2ccccc2)[C@@H](CCc2c(F)cccc2NC(=O)CC(c2ccc(F)cc2)c2ccc(F)cc2)CN1 | 700 nM | 
C[C@H]1CNC[C@H](CCc2c(F)cccc2NC(=O)CC(c2ccc(F)cc2)c2ccc(F)cc2)N1S(=O)(=O)c1ccccc1 | 17 nM | 
O=C(CC(c1ccc(F)cc1)c1ccc(F)cc1)Nc1cccc(F)c1CC[C@H]1CN[C@@H]2CCCS(=O)(=O)N1C2 | 21 nM | 
CC(C)CN(C[C@@H](O)[C@H](Cc1ccccc1)NC(=O)O[C@H]1CO[C@H]2OCC[C@H]21)S(=O)(=O)c1ccc(N)cc1 | 7 nM | 
C[C@@H]1CN(S(=O)(=O)c2ccccc2)[C@@H](CCc2c(F)cccc2NC(=O)CC(c2ccc(F)cc2)c2ccc(F)cc2)CN1 | 520 nM | 
O=C(CC(c1ccc(F)cc1)c1ccc(F)cc1)Nc1cccc(F)c1CC[C@@H]1CNCCN1S(=O)(=O)c1ccccc1 | 1200 nM | 
O=C(CC(c1ccc(F)cc1)c1ccc(F)cc1)Nc1cccc(F)c1CC[C@H]1CNCCN1S(=O)(=O)c1ccccc1 | 27 nM | 
COC(=O)N[C@H](C(=O)N[C@@H](Cc1ccccc1)[C@@H](O)CN(Cc1ccc(-c2ccccn2)cc1)NC(=O)[C@@H](NC(=O)OC)C(C)(C)C)C(C)(C)C [ATAZANAVIR] | 12 nM | 
C[C@@H]1CNC[C@H](CCc2c(F)cccc2NC(=O)CC(c2ccc(F)cc2)c2ccc(F)cc2)N1S(=O)(=O)c1ccccc1 | 70 nM | 
N[C@H](C(=O)Nc1cncc(F)c1CC[C@H]1CN[C@@H]2CCCS(=O)(=O)N1C2)[C@@H](c1ccc(Cl)cc1)c1cc(F)cc(F)c1 | 2.8 nM | Ratio EC50 [2]: 10; Ratio IC50 [3]: 60; IC50 (Protease): 0.012 nM
